From paper PMC12206033, “Selective inhibition of TRPV3 channel by natural rosmarinic acid and its analogs for alleviation of skin lesions through downregulation of NF-κB pathway” (The Journal of Biological Chemistry, 2025)

What was measured:
[1] = target: T1, hTRPV3 (Homo sapiens, UniProt Q8NET8); assay: single-channel inside-out patch recordings of hTRPV3 in HEK293T cells; assay type: cell-based; details: 2-APB 50 μM or Car 300 μM alone, n = 5
T1 construct: expressed in transfected cells; host or cells: HEK293T
T1 sequence (Q8NET8 1-790): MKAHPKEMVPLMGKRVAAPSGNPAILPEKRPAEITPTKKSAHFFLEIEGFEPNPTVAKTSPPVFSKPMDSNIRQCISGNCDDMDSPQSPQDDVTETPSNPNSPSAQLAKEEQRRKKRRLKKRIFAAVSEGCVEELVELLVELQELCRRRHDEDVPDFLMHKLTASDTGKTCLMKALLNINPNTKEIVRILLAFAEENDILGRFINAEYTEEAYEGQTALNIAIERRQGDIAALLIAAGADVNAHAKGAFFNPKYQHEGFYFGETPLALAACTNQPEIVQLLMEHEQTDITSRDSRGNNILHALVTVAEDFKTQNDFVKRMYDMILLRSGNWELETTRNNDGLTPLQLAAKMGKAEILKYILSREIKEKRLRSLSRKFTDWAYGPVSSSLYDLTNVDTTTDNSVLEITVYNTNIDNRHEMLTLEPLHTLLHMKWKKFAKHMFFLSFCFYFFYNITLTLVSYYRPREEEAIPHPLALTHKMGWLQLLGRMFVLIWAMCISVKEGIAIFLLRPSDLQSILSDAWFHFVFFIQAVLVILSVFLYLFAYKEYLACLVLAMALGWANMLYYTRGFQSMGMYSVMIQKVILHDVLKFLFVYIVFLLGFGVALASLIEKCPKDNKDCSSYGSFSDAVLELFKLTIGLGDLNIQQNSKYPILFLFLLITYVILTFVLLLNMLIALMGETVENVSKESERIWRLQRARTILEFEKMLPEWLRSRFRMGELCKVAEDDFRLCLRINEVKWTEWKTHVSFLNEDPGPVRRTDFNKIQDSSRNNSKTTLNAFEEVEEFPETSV
Procedure: HEK293T cell line was obtained from the Cell Resource Center, Peking Union Medical College. HEK293T cells were maintained in Dulbecco’s modified Eagle’s medium (DMEM, Gibco) supplemented with 10% fetal bovine serum at 37 °C with 5% CO2. HEK293T cells were seeded onto glass coverslips 1 day in advance and transiently transfected with […] complementary deoxyribonucleic acids of human TRPV3 (hTRPV3, accession number NM_145068.4), hTRPV1 (accession number NM_080704.3), mTRPV2 (accession number NM_011706.2), hTRPV4 (accession number NM_021625.5), hTRPA1 (accession number NM_007332.3), and hTRPM8 (accession number NM_024080.5) through Lipofectamine 2000 (Invitrogen) following the manufacture’s protocol. The next day, determine the plasmid transfection status by observing green fluorescence based on expression of enhanced GFP as an indicator. […] As for the relative fluorescence intensity, we convert the image to 8 bit grayscale using ImageJ (Https://imagej.net/software/fiji/downloads) and set an appropriate threshold value to reduce background noise and enhance the image contrast.
(§1) All patch-clamp recordings were conducted 16 to 24 h after transfection using an EPC10 amplifier powered by PatchMaster software (HEKA) (https://www.heka.com/downloads/downloads_main.html#down_patchmaster) at room temperature. The borosilicate glass pipettes were pulled using a DMZ universal electrode puller (Zeitz-Instruments GmbH) to achieve the resistances of three to 5 MΩ (for whole-cell recordings) or five to 9 MΩ (for inside-out patch recordings). Currents were recorded at a potential ramp from −100 mV to +100 mV for 1000 ms with 1000-ms intervals (for whole-cell recordings) or a persistent potential of −60 mV (inside-out patch recordings). Both pipette solution and bath solution contained (in mM): 130 NaCl, 3 Hepes, and 0.2 EDTA (pH = 7.2–7.4). All recording data were analyzed using Igor Pro (Wave-metrics) (https://www.wavemetrics.com/order/order_igordownloads.htm) and Origin 8.6 (Origin Lab) (https://www.originlab.com/doc/zh/Quick-Help/Download-Installer).

[2] = target: T1, hTRPV3; assay: whole-cell patch-clamp of hTRPV3 currents in HEK293T cells activated by 2-APB; assay type: cell-based; details: for inhibition at 50 µM: HEK-293T, compound 50 μM, agonist 2-APB 50 μM, Fig. 3I, n = 4-5, read-out: inhibition of hTRPV3 currents; for IC50: evoked by 2-APB 50 μM, outward currents at +80 mV, HEK293T, Fig. 3J, n = 5-7, read-out: IC50, inhibition of whole-cell hTRPV3 currents
Procedure: (§2) HEK293T cell line was obtained from the Cell Resource Center, Peking Union Medical College. HEK293T cells were maintained in Dulbecco’s modified Eagle’s medium (DMEM, Gibco) supplemented with 10% fetal bovine serum at 37 °C with 5% CO2. HEK293T cells were seeded onto glass coverslips 1 day in advance and transiently transfected with […] complementary deoxyribonucleic acids of human TRPV3 (hTRPV3, accession number NM_145068.4), hTRPV1 (accession number NM_080704.3), mTRPV2 (accession number NM_011706.2), hTRPV4 (accession number NM_021625.5), hTRPA1 (accession number NM_007332.3), and hTRPM8 (accession number NM_024080.5) through Lipofectamine 2000 (Invitrogen) following the manufacture’s protocol. The next day, determine the plasmid transfection status by observing green fluorescence based on expression of enhanced GFP as an indicator. All WT or mutant hTRPV3 complementary deoxyribonucleic acid plasmids were confirmed by DNA sequencing. When conducting experiments on HEK293T cells transfected with G573S point mutant TRPV3 plasmid, we replaced culture medium with or without compounds after 4 h of transfection and then observed green fluorescence of HEK293T cell after 10 h. As for the relative fluorescence intensity, we convert the image to 8 bit grayscale using ImageJ (Https://imagej.net/software/fiji/downloads) and set an appropriate threshold value to reduce background noise and enhance the image contrast.
as §1

[3] = test system: HEK293T cells expressing hTRPV3; assay: Hoechst 33342/propidium iodide double staining cell death assay; assay type: cell-based
Procedure: For cell death assay, HEK293T cells transfected with hTRPV3 were seeded in 6-well plates and randomly divided into different groups. TRPV3 and NF-κB inhibitors were added 1 h before the addition of Car. After administration of Car for 1 h, cell death was detected using Hoechst 33342/propidium iodide Double Stain Kit (Solarbio). After staining, cells were resuspended with PBS buffer. Five random view images in each group were taken under a microscope (Eclipse Ti, Nikon) and counted using ImageJ software (National Institutes of Health).

[4] = test system: Car-induced ear swelling and dorsal skin inflammation in mice; assay: mouse model of ear swelling and dorsal skin inflammation induced by skin sensitizer Car (3%); assay type: in vivo
Text: Adult C57BL/6J mice (aged 6–8 weeks, weighing 20 ± 2 g) were purchased from the Beijing Vital River Laboratory Animal Technology Co. Ltd. TRPV3-KO mice were purchased from Cyagen Biosciences Inc. All mice were housed in plastic cages with natural poplar wood bedding materials, accommodating three to five mice per cage. The housing environment was maintained at a controlled room temperature of (23 ± 2) °C and humidity of (50 ± 5) %, with 12-h light/dark cycle (lights on at 7:00 AM and off at 7:00 PM). Mice had free access to food and water. All animal test protocols were approved by the Institutional Animal Care and Use Committee of Qingdao University Health Science Center and were conducted in accordance with institutional and national guidelines for the use and care of animals in experiments. All mice were anesthetized with isoflurane (1%–1.5%) using an isoflurane gas anesthesia device and were euthanized under anesthesia.
(§3) Skin sensitizer Car was dissolved in saline solution containing 30% ethanol. The dorsal skin or ear of mice was swabbed with 3% Car for four consecutive days. To investigate the effects of ROSA, it was diluted to concentration of 0.1/1/10 mM with saline and topically applied on the ear and dorsal skin once a day for 4 days. The control group only received swabs with the solvent.

[5] = CCK-8 cell viability assay; assay type: cell-based; details: human, HEK293T cells expressing hTRPV3, Car 300 μM for 1 h, read-out: cell viability rate, Car alone
Procedure: For cell viability assay, hTRPV3-HEK293T cells were seeded in 96-well plates for 12 to 16 h before exposed to Car in DMEM containing 2% fetal bovine serum for 1 h. TRPV3 and NF-κB inhibitors were added 1 h before the addition of Car. After removing the medium containing chemical compounds, hTRPV3-HEK293T cells were incubated with DMEM containing 10% CCK-8 (TargetMol) for 1 h. Cell viability was then assessed using the Sunrise microplate reader under the light absorbance at 450 nm (TECAN, CH).

[6] = test system: TRPV3, IL-6, TNF-α, and p-P65 protein expressions; assay: Western blot of TRPV3 and NF-κB pathway proteins in mouse ear tissues; assay type: in vivo; details: mouse ear tissues treated with 3% Car; day 5
Procedure: as §3
Skin or ear skin tissues were homogenized in radioimmunoprecipitation assay buffer (Thermo Fisher Scientific) containing protease inhibitors at a ratio of 100:1 per 10 mg tissue and centrifuged at 15,000 rpm for 15 min. The protein concentration was quantified using a bicinchoninic acid kit (Thermo Fisher Scientific), followed by SDS-PAGE for Western blot analysis. Protein transfer was performed at 150 mA for 90 min, and the transferred membranes (Millipore) were incubated with primary antibodies (TRPV3 antibody, 1:1000, TNF-α antibody, 1:1000, IL-6 antibody, 1:2500, P65 antibody, 1:1000 and p-P65 antibody, 1:1000) in 5% skim milk (Becton, Dickinson and Company). […] Images were quantified using the Image Lab software (https://www.bio-rad.com/zh-cn/product/image-lab-software?ID=KRE6P5E8Z).

[7] = test system: NF-κB p-P65; details: no reference given; read-out: IC50 of NF-κB p-P65 inhibitor; cited from earlier work
[8] = test system: HEK293T cells expressing G573S-TRPV3; assay: green fluorescence of live HEK293T cells transfected with gain-of-function mutant GFP-TRPV3-G573S; assay type: cell-based, human; details: compound 20 μM
Procedure: as §2, with “All WT or mutant hTRPV3 complementary deoxyribonucleic acid plasmids were confirmed by DNA sequencing.” left out

[9] = inhibitor 20 μM added 1 h before Car 300 μM
[10] = topical JSH-23 20 μM in 100 μl coapplied with Car for consecutive 4 days, mouse dorsal skin

Row | SMILES | inhibition at 50 µM [2] [%] | IC50 [2] [µM] | single-channel open probability, agonist alone [1] | cell death ratio [3, 9] [%] | green fluorescence of live cells [8] | other results
1 | NCCOB(c1ccccc1)c1ccccc1 [2-APB, 2-aminoethoxydiphenyl borate, reference compound] | – | – | 0.67 ± 0.05 | – | – | –
2 | Cc1ccc(C(C)C)cc1O [Car, carvacrol, reference compound] | – | – | 0.77 ± 0.09 | – | – | cell death ratio, Car alone ([3]; Car 300 μM for 1 h, vehicle control 8%): 30%; ear skin inflammation, thickness and ear swelling scores, Car alone ([4]; topical Car for consecutive 4 days, WT mice): ear skin inflammation with significantly increased thickness and ear swelling scores; viability at 1 h, 300 μM [5]: 72%; protein expressions of TRPV3, IL-6, TNF-α, and p-P65, Car alone [6]: upregulated
3 | Cc1ccc(NCCCc2ccccc2)c(N)c1 [JSH-23] | – | – | – | 17 | robust green fluorescence | cell death ratio ([3]; inhibitor 5 μM added 1 h before Car 300 μM): 21%; IC50 [7]: 7.1 µM; dermatitis scores [4, 10]: reduction of dermatitis scores; dorsal skin inflammation [4, 10]: significant alleviation of the dorsal skin inflammation
4 | N.N.N.N.N.N.N.N.N.N.N.N.N.N.[Cl-].[Cl-].[Cl-].[Cl-].[Cl-].[Cl-].[O-2].[O-2].[Ru+3].[Ru+3].[Ru+4] [RR, ruthenium red] | – | – | – | 23 | robust green fluorescence | –

Continued, in another order:

Row | inhibition at 50 µM [2] [%] | IC50 [2] [µM] | SMILES | single-channel open probability, agonist alone [1] | cell death ratio [3, 9] [%] | green fluorescence of live cells [8] | other results
5 | ~40.1 | 67.7 ± 22.4 | O=C(/C=C/c1ccc(O)c(O)c1)NCCc1ccc(O)c(O)c1 [CADA, (E)-3-(3,4-dihydroxyphenyl)-N-(2-(3,4-dihydroxyphenyl)ethyl)-2-propenamide] | – | – | – | –
6 | 9 ± 5.2 | 157 ± 34.5 | COC(=O)[C@@H](Cc1ccc(O)c(O)c1)OC(=O)/C=C/c1ccc(O)c(O)c1 [MROSA, methyl rosmarinate] | – | – | – | –
